# Activity calls are given as the source filed them.
# Key:
# Type in all cases: functional
# [1] = target: Tyrosine-protein kinase receptor TYRO3 (Homo sapiens, UniProt Q06418);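 note: TYRO3 value obtained as one member of a kinome-wide profiling panel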
# [2] = target: cAMP-dependent protein kinase catalytic subunit PRKX (Homo sapiens, UniProt P51817)
# [3] = target: Dual specificity tyrosine-phosphorylation-regulated kinase 1B (Homo sapiens, UniProt Q9Y463); test: Navigating the Kinome. Panel member name: DYRK1B
# [4] = target: LIM domain kinase 1 (Homo sapiens, UniProt P53667); test: Navigating the Kinome. Panel member name: LIMK1
# [5] = target: Matrix metalloproteinase-14 (Homo sapiens, UniProt P50281); test: Dose Response confirmation of uHTS hits for a small molecule inhibitors of MT1-MMP activation in a fluorescence assay set 1.
# [6] = target: T1, Sentrin-specific protease 6 (Homo sapiens, UniProt Q9GZR1); test: SAR Analysis of small molecule inhibitors of Sentrin-specific protease 6 (SENP6) using a Luminescent assay. [Related pubchem assays (depositor defined):AID2582, AID2599]
# T1 sequence (Q9GZR1 whole entry): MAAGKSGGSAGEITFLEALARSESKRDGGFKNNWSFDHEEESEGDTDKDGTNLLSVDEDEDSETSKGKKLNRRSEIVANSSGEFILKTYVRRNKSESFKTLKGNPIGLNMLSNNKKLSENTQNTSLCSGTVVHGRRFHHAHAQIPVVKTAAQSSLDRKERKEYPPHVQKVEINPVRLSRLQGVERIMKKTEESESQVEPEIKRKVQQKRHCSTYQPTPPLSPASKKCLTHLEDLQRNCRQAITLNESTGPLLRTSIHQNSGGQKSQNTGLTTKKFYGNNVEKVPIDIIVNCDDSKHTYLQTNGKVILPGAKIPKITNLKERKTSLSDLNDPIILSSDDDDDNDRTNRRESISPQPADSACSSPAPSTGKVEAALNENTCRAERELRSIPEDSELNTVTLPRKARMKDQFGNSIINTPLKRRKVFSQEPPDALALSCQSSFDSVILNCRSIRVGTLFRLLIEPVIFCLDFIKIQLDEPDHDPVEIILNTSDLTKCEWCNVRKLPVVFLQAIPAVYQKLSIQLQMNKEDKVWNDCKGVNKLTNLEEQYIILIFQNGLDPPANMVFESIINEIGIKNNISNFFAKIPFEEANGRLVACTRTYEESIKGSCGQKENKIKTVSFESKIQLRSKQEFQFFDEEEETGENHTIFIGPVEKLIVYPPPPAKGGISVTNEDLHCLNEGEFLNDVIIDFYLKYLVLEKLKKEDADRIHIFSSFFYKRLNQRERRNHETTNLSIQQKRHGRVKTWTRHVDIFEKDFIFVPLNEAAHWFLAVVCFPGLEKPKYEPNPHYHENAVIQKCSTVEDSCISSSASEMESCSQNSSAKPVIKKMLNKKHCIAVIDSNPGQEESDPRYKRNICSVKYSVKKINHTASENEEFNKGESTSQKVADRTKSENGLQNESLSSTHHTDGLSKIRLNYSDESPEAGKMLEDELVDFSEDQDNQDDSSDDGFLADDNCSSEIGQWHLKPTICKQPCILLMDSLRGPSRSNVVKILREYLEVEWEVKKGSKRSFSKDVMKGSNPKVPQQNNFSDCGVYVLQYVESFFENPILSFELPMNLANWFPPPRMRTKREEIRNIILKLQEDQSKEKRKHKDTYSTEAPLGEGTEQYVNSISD
# [7] = target: T2, Protein RecA (Mycobacterium tuberculosis, UniProt P9WHJ3); test: Fluorescence Cell-Free Homogeneous Dose Retest to Identify Inhibitors of RecA-Intein Splicing Activity. [Related pubchem assays (depositor defined):AID2097, AID2223, AID489010, AID492950]
# T2 sequence (P9WHJ3 whole entry): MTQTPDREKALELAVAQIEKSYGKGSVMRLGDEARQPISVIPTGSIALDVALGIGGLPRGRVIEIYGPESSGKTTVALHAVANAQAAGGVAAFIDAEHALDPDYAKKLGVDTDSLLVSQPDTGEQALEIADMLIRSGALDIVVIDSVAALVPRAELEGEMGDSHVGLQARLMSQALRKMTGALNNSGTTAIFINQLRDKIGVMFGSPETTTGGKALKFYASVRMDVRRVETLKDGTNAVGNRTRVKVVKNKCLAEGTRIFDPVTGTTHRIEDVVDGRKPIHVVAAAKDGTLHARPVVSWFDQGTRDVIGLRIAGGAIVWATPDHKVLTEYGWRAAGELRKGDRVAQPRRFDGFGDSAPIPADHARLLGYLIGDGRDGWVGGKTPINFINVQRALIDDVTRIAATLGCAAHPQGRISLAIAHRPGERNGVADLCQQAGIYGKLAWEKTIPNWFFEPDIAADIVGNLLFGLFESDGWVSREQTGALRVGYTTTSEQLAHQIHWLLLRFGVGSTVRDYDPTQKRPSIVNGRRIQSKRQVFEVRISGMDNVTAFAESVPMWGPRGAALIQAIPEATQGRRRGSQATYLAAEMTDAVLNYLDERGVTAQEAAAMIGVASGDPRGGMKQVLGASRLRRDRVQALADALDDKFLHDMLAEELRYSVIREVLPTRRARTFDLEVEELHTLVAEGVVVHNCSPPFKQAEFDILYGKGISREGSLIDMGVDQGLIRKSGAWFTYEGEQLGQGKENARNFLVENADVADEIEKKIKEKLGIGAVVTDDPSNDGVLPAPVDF
# LIM domain kinase 1, sequence (P53667 whole entry, the tested form may be a part): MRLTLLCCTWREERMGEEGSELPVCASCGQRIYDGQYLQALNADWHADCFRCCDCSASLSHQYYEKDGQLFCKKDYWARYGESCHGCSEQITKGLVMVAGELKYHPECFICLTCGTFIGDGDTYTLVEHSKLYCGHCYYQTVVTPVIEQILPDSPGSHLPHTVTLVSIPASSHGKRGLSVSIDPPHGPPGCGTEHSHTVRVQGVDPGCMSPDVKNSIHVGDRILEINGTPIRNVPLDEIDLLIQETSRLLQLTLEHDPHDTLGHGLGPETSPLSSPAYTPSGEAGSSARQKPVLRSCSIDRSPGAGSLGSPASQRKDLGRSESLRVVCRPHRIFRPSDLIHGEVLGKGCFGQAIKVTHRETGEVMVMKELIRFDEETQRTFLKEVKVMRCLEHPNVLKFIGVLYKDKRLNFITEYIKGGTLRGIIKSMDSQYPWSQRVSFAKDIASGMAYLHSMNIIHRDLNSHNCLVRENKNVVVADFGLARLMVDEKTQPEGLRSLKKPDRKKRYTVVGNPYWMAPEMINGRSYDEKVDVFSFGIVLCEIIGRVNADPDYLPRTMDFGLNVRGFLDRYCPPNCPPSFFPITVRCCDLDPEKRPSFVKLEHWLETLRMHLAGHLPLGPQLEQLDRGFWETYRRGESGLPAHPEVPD
# Dual specificity tyrosine-phosphorylation-regulated kinase 1B, sequence (Q9Y463 whole entry, the tested form may be a part): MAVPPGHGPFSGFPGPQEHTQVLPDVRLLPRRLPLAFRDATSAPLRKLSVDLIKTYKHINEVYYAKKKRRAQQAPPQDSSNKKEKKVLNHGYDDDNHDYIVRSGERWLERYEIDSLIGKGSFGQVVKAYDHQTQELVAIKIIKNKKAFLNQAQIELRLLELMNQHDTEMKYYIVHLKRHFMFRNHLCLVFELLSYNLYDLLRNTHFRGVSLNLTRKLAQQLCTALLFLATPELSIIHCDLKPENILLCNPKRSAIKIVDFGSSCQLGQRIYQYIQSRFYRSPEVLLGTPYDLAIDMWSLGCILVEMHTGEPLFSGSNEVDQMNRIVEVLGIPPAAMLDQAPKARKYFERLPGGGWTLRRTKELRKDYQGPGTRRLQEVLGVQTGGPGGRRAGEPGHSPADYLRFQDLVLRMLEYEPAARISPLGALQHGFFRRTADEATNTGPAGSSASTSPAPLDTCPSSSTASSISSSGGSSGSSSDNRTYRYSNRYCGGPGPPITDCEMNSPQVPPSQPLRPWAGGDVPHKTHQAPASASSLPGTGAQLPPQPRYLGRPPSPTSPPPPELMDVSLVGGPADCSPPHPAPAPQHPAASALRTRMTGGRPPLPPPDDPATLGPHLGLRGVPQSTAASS
# Tyrosine-protein kinase receptor TYRO3, sequence (Q06418 whole entry): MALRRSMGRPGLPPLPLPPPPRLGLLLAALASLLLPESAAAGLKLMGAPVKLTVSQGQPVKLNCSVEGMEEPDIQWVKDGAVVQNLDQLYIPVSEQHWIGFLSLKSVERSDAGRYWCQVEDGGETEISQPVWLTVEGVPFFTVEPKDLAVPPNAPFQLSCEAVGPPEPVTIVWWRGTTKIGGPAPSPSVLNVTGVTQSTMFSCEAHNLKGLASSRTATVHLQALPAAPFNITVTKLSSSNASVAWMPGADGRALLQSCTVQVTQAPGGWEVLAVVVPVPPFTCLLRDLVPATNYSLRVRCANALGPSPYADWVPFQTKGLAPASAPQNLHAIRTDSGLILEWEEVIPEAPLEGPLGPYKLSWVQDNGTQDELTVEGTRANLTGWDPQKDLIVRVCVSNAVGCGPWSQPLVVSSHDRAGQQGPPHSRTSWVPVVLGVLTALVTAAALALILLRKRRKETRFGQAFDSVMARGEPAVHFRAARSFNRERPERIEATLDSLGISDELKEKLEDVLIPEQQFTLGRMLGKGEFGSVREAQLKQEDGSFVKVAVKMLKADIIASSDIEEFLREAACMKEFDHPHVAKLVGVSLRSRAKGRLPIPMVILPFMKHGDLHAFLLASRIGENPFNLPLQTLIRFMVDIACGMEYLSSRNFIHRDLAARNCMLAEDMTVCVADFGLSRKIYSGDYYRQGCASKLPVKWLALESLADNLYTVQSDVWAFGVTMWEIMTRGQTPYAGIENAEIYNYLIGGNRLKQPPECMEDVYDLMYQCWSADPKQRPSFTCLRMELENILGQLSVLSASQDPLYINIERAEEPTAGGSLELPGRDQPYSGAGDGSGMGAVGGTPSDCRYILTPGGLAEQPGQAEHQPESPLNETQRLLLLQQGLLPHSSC
# cAMP-dependent protein kinase catalytic subunit PRKX, sequence (P51817 whole entry): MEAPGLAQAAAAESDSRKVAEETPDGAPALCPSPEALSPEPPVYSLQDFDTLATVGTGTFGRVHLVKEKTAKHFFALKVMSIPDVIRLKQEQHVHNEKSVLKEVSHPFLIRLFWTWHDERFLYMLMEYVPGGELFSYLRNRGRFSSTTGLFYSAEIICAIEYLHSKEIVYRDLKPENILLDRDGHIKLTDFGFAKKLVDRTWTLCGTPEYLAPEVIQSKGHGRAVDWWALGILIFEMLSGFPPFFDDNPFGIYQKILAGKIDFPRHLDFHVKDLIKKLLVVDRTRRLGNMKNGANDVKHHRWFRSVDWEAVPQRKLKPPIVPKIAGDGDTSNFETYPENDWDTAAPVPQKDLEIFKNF
smiles,measurement,setting,value
COc1cccc(C(C)NC(=O)c2ccc(-c3ccncc3)s2)c1 (configuration not stated),Ki,[1],> 3.16 µM (inactive)
same,Ki,[2],2 µM (active)
same,Ki,[3],> 2.51 µM (inactive)
same,Ki,[4],> 3.16 µM (inactive)
O=Nc1c(-c2c(O)[nH]c3cc(Br)ccc23)[nH]c2ccccc12,IC50,[5],1.78 µM (active)
Cc1ccc(NC(=O)COc2cccc(/C=C3\SC(=S)N(CCC(=O)O)C3=O)c2)cc1Cl,IC50,[6],5.06 µM (active)
same,EC50,[7],19.1 µM (active)

# Source: ChEMBL document CHEMBL1201862, “PubChem BioAssay data set” (2004)
